Type in all cases: biochemical
Assay [1] deals with T1, α-glucosidase I (Baker's yeast) (Saccharomyces cerevisiae, UniProt P53008).
T1 construct: made in house; host or cells: Baker's yeast (native enzyme, prepared by the cited method)
T1 sequence (P53008 25-833 limits assumed): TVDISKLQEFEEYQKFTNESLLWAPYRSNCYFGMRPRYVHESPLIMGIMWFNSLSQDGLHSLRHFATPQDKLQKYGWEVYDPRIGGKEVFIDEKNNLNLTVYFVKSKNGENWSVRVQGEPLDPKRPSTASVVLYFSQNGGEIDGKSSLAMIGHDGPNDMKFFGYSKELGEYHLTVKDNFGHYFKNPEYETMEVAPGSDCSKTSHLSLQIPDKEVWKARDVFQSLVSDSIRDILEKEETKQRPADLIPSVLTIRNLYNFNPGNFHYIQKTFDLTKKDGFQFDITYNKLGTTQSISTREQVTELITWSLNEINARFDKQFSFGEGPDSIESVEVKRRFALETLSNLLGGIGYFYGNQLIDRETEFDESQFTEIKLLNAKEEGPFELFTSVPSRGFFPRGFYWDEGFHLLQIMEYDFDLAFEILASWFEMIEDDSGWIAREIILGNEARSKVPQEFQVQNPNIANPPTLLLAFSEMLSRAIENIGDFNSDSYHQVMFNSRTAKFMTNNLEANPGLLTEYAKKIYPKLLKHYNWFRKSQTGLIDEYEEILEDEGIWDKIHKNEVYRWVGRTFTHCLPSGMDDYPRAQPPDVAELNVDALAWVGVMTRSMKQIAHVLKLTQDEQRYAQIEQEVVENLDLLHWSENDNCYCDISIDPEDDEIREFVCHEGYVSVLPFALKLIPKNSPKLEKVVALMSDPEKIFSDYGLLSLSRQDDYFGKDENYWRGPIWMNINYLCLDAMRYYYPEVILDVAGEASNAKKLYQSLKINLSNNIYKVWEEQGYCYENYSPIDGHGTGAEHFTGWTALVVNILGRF
In words: Inhibitory activity on α-glucosidase I (Ki). As to the method: The α-glucosidase I (Baker's yeast) and its substrate (α-D-Glcl→2α-D-Glcl→3α-D-Glc-O(CH2)6 COOCH3) employed herein were prepared in accordance with the method of I. Neverova et al., Anal. Biochem., 222, 190-196 (1994).
The following measurements were performed by the methods described in this literature.
Namely, 25 μl of a buffer solution containing α-glucosidase I was added to a microtube containing the above-mentioned sample and the substrate (α-D-Glcl→2α-D-Glcl→3α-D-Glc-O(CH2)6 COOCH3). After incubating at 37° C. for 1 hour, a 1.25M tris hydrochloride buffer solution (pH 7.6, 25 μl) was added to thereby cease .the reaction. Then the reaction mixture was transferred onto a microplate followed by the addition of 250 μl of a reaction buffer solution [developing solution; 1M tris hydrochloride buffer solution (pH 7.2) containing glucose oxidase (5 units/ml, manufactured by Sigma), horseradish peroxidase (1 purpurogallin units, manufactured by Sigma) and o-dianisidine dihydrochloride (40 μg/ml)]. Then the mixture was incubated at 37° C. for 30 minutes or until an increase in the absorbance attained a plateau. Then the absorbance (A450-650) of the o-dianisidine formed and oxidized by this enzyme reaction was measured. As a blank, the above reaction was repeated but adding neither the above-mentioned sample nor substrate and the absorbance was measured. Also, the above-mentioned reaction buffer solution was added to D-glucose of a known concentration and the resulting mixture was incubated followed by the measurement of the absorbance to thereby examine a relationship between D-glucose concentration and absorbance. Each measurement was effected in two wells at the same time.
Based on the above-mentioned relationship between D-glucose concentration and absorbance, the amount of glucose liberated from the substrate due to the enzyme reaction of α-glucosidase I in the presence of the sample was determined. From the result thus obtained, Km was determined and then Ki was determined from the sample amount and the Km value.

The target of assay [2] is T2, α-Glucosidase (Baker's yeast, EC 3.2.1.20) (Saccharomyces cerevisiae, UniProt P53341).
T2 construct: purchased Sigma; host or cells: Baker's yeast
In words: α-Glucosidase enzyme inhibition assay (p-nitrophenyl α-D-glucopyranoside). The note with it: for IC50: pH 6.8, 37° C., 30 minutes, read-out: IC50 (M) α-Glucosidase (Baker's yeast); for inhibitory activity against α-glucosidase (in words): compared with deoxynojirimycin, summary of Tables 1 and 2. How it is done: (§1) By using a 96-well microplate, the absorbance (at 405 nm) of liberated p- or o-nitrophenol was measured with a microplate reader (MPR-4Ai, manufactured by Tosoh Corporation).
(§2) Incubation was carried out at 37° C. by using a natural incubator (Compact NIB-10, manufactured by Iwaki Glass Co., Ltd.).
(§3) The enzymes employed herein [α-glucosidase (Baker's yeast), β-glucosidase (Almonds), α-galactosidase (E. coli), β-galactosidase (E. coli) and β-galactosidase (Bovine Liver)] were all purchased from Sigma.
(§4) The substrates (p- or o-nitrophenylglycoside) of these enzymes were all purchased from Sigma.
1) α-Glucosidase (Baker's yeast, EC 3.2.1.20) [described in H. Halvorson and L. Ellias, Biochim. Biophys. Acta, 30, 28-40 (1958)]
Into each well were introduced an aqueous solution of a sample (1 μl), a 0.66 mM solution of p-nitrophenyl α-D-glucopyranoside in a buffer (98 μl) and a (0.4 mg/ml) enzyme solution in the buffer (1 μl) to give a total volume of 100 μl. After incubating at 37° C. for 30 minutes, the reaction was ceased by adding a 1M aqueous solution of sodium carbonate (100 μl). Then the absorbance (A405) of p-nitrophenol liberated by this enzyme reaction was measured. To give the blank absorbance (Ablank), the sample (1 μl) and the substrate (99 μl) were incubated in the same manner and an aqueous solution of sodium carbonate (100 μl) was added followed by the measurement of the absorbance. […] The sample at each concentration, the blank and the control were treated each in two wells at the same time. As the buffer, a 0.1M phosphate buffer solution (pH 6.8, prepared from KH2 PO4 and K2 HPO4) was employed.

Assay [3] addresses β-Glucosidase (Almonds, EC 3.2.1.21). In words: β-Glucosidase enzyme inhibition assay (p-nitrophenyl β-D-glucopyranoside). The conditions noted are these: for IC50: pH 5.0, 37° C., 45 minutes. How it is done:
as §1, §2, §3, §4
2) β-Glucosidase (Almonds, EC 3.2.1.21) [described in A. Kobayashi, Agr. Biol. Chem., 26, 203-207 (1962)]
Into each well were introduced an aqueous solution of a sample (1 μl), a 0.33 mM solution of p-nitrophenyl β-D-glucopyranoside in a buffer (98 μl) and a (0.4 mg/ml) enzyme solution in the buffer (1 μl) to give a total volume of 100 μl. After incubating at 37° C. for 45 minutes, the reaction was ceased by adding a 1M aqueous solution of sodium carbonate (100 μl). Then the absorbance (A405) of p-nitrophenol liberated by this enzyme reaction was measured. To give the blank absorbance (Ablank), the sample (1 μl) and the substrate (99 μl) were incubated in the same manner and an aqueous solution of sodium carbonate (100 μl) was added followed by the measurement of the absorbance. […] As the buffer, a 0.1M acetate buffer solution (pH 5.0, prepared from NaOAc and AcOH) was employed. The IC50 was determined in the same manner as employed in the case of α-glucosidase.

Assay [4] relates to α-Galactosidase (E. Coli, EC. 3.2.1.22). Description: α-Galactosidase enzyme inhibition assay (p-nitrophenyl α-D-galactopyranoside). The conditions noted are these: pH 6.5, room temperature, 15 minutes. How it is done: as §1, §3, §4
3) α-Galactosidase (E. Coli, EC. 3.2.1.22) [described in H. Suzuki, S-C. Li and Y-T. Li, J. Biol. Chem., 245, 781-786 (1970)]
Into each well were introduced an aqueous solution of a sample (1 μl), a buffer (74 μl), a 9.9 mM solution of p-nitrophenyl α-D-galactopyranoside in a buffer (20 μl) and a (50 μg/ml) enzyme solution in the buffer (5 μl) to give a total volume of 100 μl. After incubating the resulting mixture at room temperature (20°-30° C.) for 15 minutes, the reaction was ceased by adding a 0.2M borate buffer solution (pH 9.8, prepared from NaOH and H3 BO3, 100 μl). Then the absorbance (A405) of p-nitrophenol liberated by this enzyme reaction was measured. To give the blank absorbance (Ablank), the sample (1 μl), the substrate (20 μl) and the buffer solution (79 μl) were incubated in the same manner and the 0.2M borate buffer solution (100 μl) was added followed by the measurement of the absorbance. To give the control absorbance ([…]), on the other hand, water (1 μl), the substrate (20 μl), the buffer solution (74 μl) and the enzyme solution (5 μl) were incubated in the same manner and the borate buffer solution (100 μl) was added followed by the measurement of the absorbance. A 0.1M phosphate buffer solution (pH 6.5, prepared from KH2 PO4 and K2 HPO4) was employed as the buffer for the enzyme reaction. The IC50 was determined in the same manner as employed in the case of α-glucosidase.

Assay [5] deals with T3, β-Galactosidase (E. Coli, EC. 3.2.1.23) (Escherichia coli, UniProt P00722).
T3 construct: purchased Sigma; host or cells: E. coli
Description: β-Galactosidase (E. coli) enzyme inhibition assay (o-nitrophenyl β-D-galactopyranoside). How it is done: as §1, §3, §4
4) β-Galactosidase (E. Coli, EC. 3.2.1.23) [described in G. R. Craven, E. Steers, Jr. and C. B. Anfinsen, J. Biol. Chem., 240, 2468-2477 (1965)]
Into each well were introduced an aqueous solution of a sample (2 μl), a buffer (153 μl), a 20 mM solution of o-nitrophenyl β-D-galactopyranoside in a buffer (25 μl), a 100 mM 2-mercaptoethanol (10 μl) and a (10 μg/ml) enzyme solution in the buffer (10 μl) to give a total volume of 200 μl. After incubating at room temperature (20°-30° C.) for 30 minutes, the absorbance (A405) of o-nitrophenol liberated by this enzyme reaction was measured. To give the blank absorbance (Ablank), the sample (2 μl), the substrate (25 μl), the buffer solution (163 μl) and 2-mercaptoethanol (10 μl) were incubated in the same manner followed by the measurement of the absorbance. To give the control absorbance (Acontrol), on the other hand, water (2 μl), the substrate (25 μl), the buffer solution (153 μl), 2-mercaptoethanol (10 μl) and the enzyme solution (10 μl) were incubated in the same manner followed by the measurement of the absorbance. A 50 mM phosphate buffer solution (pH 7.3, prepared from KH2 PO4 and K2 HPO4, containing 1.3 mM of MgCl2) was employed as the buffer for the enzyme reaction. The IC50 was determined in the same manner as employed in the case of α-glucosidase.

[6] abbreviates: α-glucosidase I, substrate 0.25-4.0 mM, 37° C., 1 hour, read-out: Ki.

pIC50, pKi: −log10 of the molar value. Where two headings read alike, the source gives them in different places.

T2 sequence (P53341 whole entry): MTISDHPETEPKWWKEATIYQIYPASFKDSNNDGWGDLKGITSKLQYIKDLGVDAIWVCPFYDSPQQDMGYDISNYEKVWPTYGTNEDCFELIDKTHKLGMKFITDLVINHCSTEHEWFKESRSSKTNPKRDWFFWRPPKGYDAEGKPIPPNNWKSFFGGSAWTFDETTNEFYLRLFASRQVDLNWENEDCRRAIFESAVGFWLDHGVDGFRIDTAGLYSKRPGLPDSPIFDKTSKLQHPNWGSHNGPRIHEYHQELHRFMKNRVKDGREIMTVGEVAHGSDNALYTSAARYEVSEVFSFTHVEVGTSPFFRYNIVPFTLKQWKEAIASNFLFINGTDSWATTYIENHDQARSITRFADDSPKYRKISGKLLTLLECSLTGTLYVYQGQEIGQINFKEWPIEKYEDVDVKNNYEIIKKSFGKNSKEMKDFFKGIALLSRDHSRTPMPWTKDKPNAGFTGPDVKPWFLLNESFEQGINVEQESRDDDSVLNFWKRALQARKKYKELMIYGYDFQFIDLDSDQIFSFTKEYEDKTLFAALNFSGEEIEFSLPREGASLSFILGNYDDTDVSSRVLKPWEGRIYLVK
T3 sequence (P00722 2-1024 limits assumed): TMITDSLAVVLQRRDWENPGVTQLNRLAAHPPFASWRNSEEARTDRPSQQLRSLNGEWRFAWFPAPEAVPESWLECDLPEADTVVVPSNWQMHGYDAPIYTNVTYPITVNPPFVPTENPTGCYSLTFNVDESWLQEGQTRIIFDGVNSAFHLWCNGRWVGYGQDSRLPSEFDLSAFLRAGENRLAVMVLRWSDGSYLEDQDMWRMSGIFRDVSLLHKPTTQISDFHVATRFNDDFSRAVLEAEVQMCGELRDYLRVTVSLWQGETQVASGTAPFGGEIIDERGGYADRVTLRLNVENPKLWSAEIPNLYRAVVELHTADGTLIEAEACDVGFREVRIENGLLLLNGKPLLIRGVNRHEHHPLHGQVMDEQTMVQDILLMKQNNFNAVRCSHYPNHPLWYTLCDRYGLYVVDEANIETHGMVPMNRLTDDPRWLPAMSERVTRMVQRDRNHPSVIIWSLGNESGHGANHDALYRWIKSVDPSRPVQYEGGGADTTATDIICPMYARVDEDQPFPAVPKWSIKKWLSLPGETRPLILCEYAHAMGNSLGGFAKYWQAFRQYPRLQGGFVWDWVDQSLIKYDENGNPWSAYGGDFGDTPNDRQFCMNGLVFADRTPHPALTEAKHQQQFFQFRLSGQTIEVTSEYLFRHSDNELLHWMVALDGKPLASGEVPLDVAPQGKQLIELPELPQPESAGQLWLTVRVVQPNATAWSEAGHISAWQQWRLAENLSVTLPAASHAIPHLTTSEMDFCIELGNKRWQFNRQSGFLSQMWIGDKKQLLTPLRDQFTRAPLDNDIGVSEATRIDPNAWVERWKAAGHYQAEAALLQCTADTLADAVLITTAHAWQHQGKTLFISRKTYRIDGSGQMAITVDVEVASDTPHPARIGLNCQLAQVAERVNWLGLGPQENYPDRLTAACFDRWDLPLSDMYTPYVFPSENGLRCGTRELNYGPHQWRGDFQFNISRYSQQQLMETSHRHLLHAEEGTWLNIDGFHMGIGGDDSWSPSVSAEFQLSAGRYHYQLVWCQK

Usually pKi stands for the negative decadic logarithm of the Ki, by convention in mol/L. In general, pIC50 refers to −log10 of the IC50, conventionally taken in molar units. In the case of `CCCCN1C[C@H](O)[C@@H](O)[C@H](O)[C@H]1CO` [N-B-DNJ, N-butyldeoxynojirimycin, reference compound], the pKi in assay [1] was 5.44. This compound also had a pIC50 in assay [2] of 4.10.

Usually IC50 stands for the concentration that inhibits the measured activity by half. As for `OC[C@]12OC(Nc3ccccc3)=N[C@H]1[C@@H](O)[C@H](O)[C@H]2O` [Compound 1-2D, (1R,5S,6R,7S,8R)-1-hydroxymethyl-3-phenylamino-2-oxa-4-azabicyclo[3.3.0]oct-3-ene-6,7,8-triol], the IC50 is 9.99e-07 M in assay [2], greater than 300 µM in assay [3] and greater than 300 µM in assay [4]. The pIC50 in assay [5] is less than 3.52.

Take `CCCCNC1=N[C@@H]2[C@H](O)[C@@H](O)[C@H](O)[C@]2(CO)O1` [Compound 2-2L, (1S,5R,6S,7R,8S)-1-hydroxymethyl-3-butylamino-2-oxa-4-azabicyclo[3.3.0]oct-3-ene-6,7,8-triol]: the pKi in assay [1] (setting [6]) is 5.38. The “inhibitory activity against α-glucosidase (in words)” value in assay [2] was “remarkably strong inhibitory activities”. Moreover, in assay [3], the IC50 is greater than 300 µM. For the same compound, in assay [3] (summary of Table 1), the “inhibitory activity against β-glucosidase (in words)” value is given as “weak inhibitory activities”.

Regarding `N[C@@H]1[C@H](O)[C@@H](O)[C@H](O)[C@@]1(O)CO` [d, 1L-(1,2,4,5/3)-5-amino-1C-hydroxymethyl-1,2,3,4-cyclopentanetetraol], the pKi in assay [1] (setting [6]) is 3.52. In addition, in assay [2], the pIC50 was 6.40 and the “inhibitory activity against α-glucosidase (in words)” value is “remarkably strong inhibitory activities”. In assay [5] (pH 7.3, room temperature, 30 minutes, read-out: IC50 (M) β-Galactosidase (E. coli)), the IC50 was greater than 0.0003 M.

In turn, `OC[C@H]1NC[C@H](O)[C@@H](O)[C@@H]1O` [DNJ, deoxynojirimycin, reference compound] gave an IC50 in assay [3] of […].

Regarding `CCCCN[C@@H]1[C@H](O)[C@@H](O)[C@H](O)[C@@]1(O)CO` [d-2, 1L-(1,2,4,5/3)-5-butylamino-1-hydroxymethyl-1,2,3,4-cyclopentanetetraol], in assay [2], the “inhibitory activity against α-glucosidase (in words)” value is given as “remarkably strong inhibitory activities” and the IC50 came to 1.7e-08 M. In assay [3], this compound displayed an IC50 of 3 µM.

As for trehasolamine [reference compound], the pKi in assay [1] (setting [6]) is 2.82. Also, the figures for the IC50 in assay [2] and in assay [3] were 0.0005 M and 9.9 µM, respectively.

Consider `CCCCN(CCCC)[C@@H]1[C@H](O)[C@@H](O)[C@H](O)[C@@]1(O)CO` [d-1, 1L-(1,2,4,5/3)-5-dibutylamino-1-hydroxymethyl-1,2,3,4-cyclopentanetetraol], for which, in assay [2], the “inhibitory activity against α-glucosidase (in words)” value is “remarkably strong inhibitory activities” and the IC50 stood at 5e-07 M. The same compound returned an IC50 in assay [3] of 130 µM.

For the origin of these results see patent publication US5684026A, “Aminocyclopentane derivative” (priority 1994, dated 1997).
